Measurements: patent US20250326799A1, “AGENTS INDUCING VASCULARISATION” (Coegin Pharma AB, priority 2022, published 2025)
Entries after “also recorded” stand apart in the source; their conditions may differ.

Assays:
Type in all cases: cell-based
[1] = test system: Human umbilical cord endothelial cells (HUVECs); assay: sFasL-induced apoptosis, caspase 3 and 7 activation, HUVECs; settings: 10 nM, 100 nM, 1000 nM
Protocol: Human Umbilical Vein Endothelial Cells (HUVECs) and Human Coronary Artery Smooth Muscle Cells (HCASMCs) were purchased from Thermo Fisher. Cells were grown in Medium 200 containing 2% Low Serum Growth Supplement and Medium 231 with 5% Smooth Muscle Growth Supplement (Invitrogen, CA, USA) respectively with addition of Antibiotic-Antimycotic (1%, Invitrogen, CA, USA). Test polypeptide and sFasL (PeproTech, NJ, USA) were dissolved in the respective complete medium.
Caspase-Glo 3/7 Assay (Promega, USA) was performed to evaluate cell apoptosis. HUVECs and HCASMCs were seeded into 96-well plates at a density of 3-5×10^3 per well. For additional NRP-1 on cells transfected siRNA, NRP-1 was added 24 hours after transfection and the mixture of Caspase-Glo 3/7 was added 48 hours after polypeptide stimulations. Subsequent steps were performed as manufacturer's instructions using the FOL26 and FOL56 as test compounds. Data were read by Wallac 1420 Victor 2 (Perkin Elmer, USA).

[2] = test system: Human umbilical cord endothelial cells (HUVECs); assay: Gene expression by PCR in endothelial cells; settings: for expression of PECAM-1 (CD31): HUVECs
Protocol: Human umbilical cord endothelial cells were first treated with a scramble non-coding siRNA (NC) or siRNA for NRP-1, subsequently treated with FOL26 in concentrations of 10 nM, 100 nM, and 1000 nM, and endothelial tube formation and the total master segemnts were measured using ImageJ. gene expression of PECAM-1 (CD31) analyzed.
Cells on 6-well plates were washed with cold DPBS (Gibco, USA) and homogenized in Trizol reagent (Invitrogen, CA, USA). Total RNA was extracted using PureLink RNA Mini Kit (Invitrogen, CA, USA), followed by nucleic acid quantification with NanoDrop 2000c (Thermo Fisher Scientific, USA). To determine mRNA expression of target genes, real-time qPCR was performed using by KAPA SYBR FAST One-Step qRT-PCR Master Mix Kit (KAPA Biosystems, USA) on LightCycler480 system (Roche, Mannheim, Germany). All primers were purchased from miScript Primer Assays (Qiagen, Valencia, CA) and GAPDH mRNA expression of each sample was used for normalization. Cells on 6-well plates were washed with cold DPBS and lysed with the mixture of lysis buffer and protease inhibitors on ice, then centrifuged at 15,000 g for 20 min at 4° C. Supernatant was performed to measure the protein concentration using BCA Protein Assay Kit (Thermo Fisher Scientific, USA). Protein sample was loaded onto SDS-PAGE gels and separated with electrophoresis, followed by transferred to PVDF membranes (Millipore, USA). Membranes were blocked with 5% nonfat milk. Primary antibodies (Abcam, UK) and secondary antibodies were performed to incubate with membranes at 4° C. overnight and at room temperature for 1 hour respectively. […]

[3] = test system: human coronary smooth muscle cells (HCASMCs); assay: Low-oxygen induced apoptosis, active caspase-3/-7, smooth muscle cells
Protocol: (§1) The effect of FOL-026 peptide treatment on smooth muscle cell proliferation (FIG. 25a) and apoptosis (FIG. 25c) induced with low-oxygen condition was evaluated with the uptake of BrdU (n=10 per group) and active caspase-3/-7 (n=6-8 per group) separately. H2O2 measurement (FIG. 25b) of smooth muscle cells pre-incubated with FOL-26 peptides after 50 ug/ml oxidized Low-density Lipoprotein (oxLDL) stimulation for 2 hours (n=6-7 per group). Representative images of scratch wound assay in vitro are shown (FIG. 26a) and the ability of wound healing (FIG. 26b) in human coronary smooth muscle cells (HCASMCs) treated with FOL-026 peptides was measured by image J software (n=10 per group). Scale bar=150 um. Data are presented as means±SEM and acquired from 3 to 4 independent replicate tests. *P<0.05, **P<0.01, ***P<0.001, ****P<0.0001 by one-way ANOVA and Dunnett's post-hoc test.

[4] = test system: human coronary smooth muscle cells (HCASMCs); assay: H2O2 measurement after oxLDL, smooth muscle cells; settings: smooth muscle cells pre-incubated with peptide; 50 ug/ml oxLDL for 2 hours
Protocol: as §1

[5] = test system: human umbilical vascular endothelial cells (HUVECs); assay: In vitro scratch wound closure, HUVECs; settings: for wound closure rate (scratch injury): HUVECs, increasing concentration of peptide
Protocol: The impact of FOL-026 peptide on human umbilical vascular endothelial cells (HUVECs) proliferation (FIG. 18a) and apoptosis (FIG. 18c) induced with low-oxygen condition was determined by BrdU uptake (n=8-9 per group) and active caspase-3/-7 (n=7-10 per group) separately. The ROS level (FIG. 18b) activated by 50 ug/ml oxidized Low-density Lipoprotein (oxLDL) for 2 hours in cells pre-incubated with FOL-026 peptides was assessed using H2O2 measurement (n=4-8 per group). Representative pictures of endothelial migration into an in vitro scratch injury were shown (FIG. 19a) and the wound closure rate (FIG. 19b) in HUVECs stimulated with increasing concentration of FOL-026 peptide was quantified by image J software (n=8-9 per group). Scale bar=150 um. Data are presented as means±SEM and acquired from 3 to 4 independent replicate tests. *P<0.05, **P<0.01, ****P<0.0001 by one-way ANOVA and Dunnett's post-hoc test.
The efficiency of small interfering RNA transfection for 48 hours in HUVECs was confirmed by qRT-PCR (n=4) (FIG. 22a). Effect of FOL-026 peptide stimulation on cell proliferation (FIG. 22b) and cell apoptosis at 0.1% oxygen (FIG. 22c) in HUVECs transfected with siRNA-NC or siNRP-1 was evaluated by BrdU incorporation (n=4-7 per group) and active caspase-3/-7 ((n=4-7 per group). Representative pictures of endothelial cells at 0 and 5 hours after scratch wounding are shown in 23a. The wound closure rate (FIG. 23b) of siRNA-NC/siNRP-1-transfected HUVECs stimulated with increasing concentration of FOL-026 peptide was quantified by image J software (n=9-12 per group). Scale bar=150 um. Data are presented as means±SEM and acquired from 3 to 4 independent replicate tests. *P<0.05, **P<0.01, ***P<0.001, ****P<0.0001 by Student's t test for A, two-way ANOVA followed with Sidak's and Dunnett's multiple comparisons test for B, C and E.
The effect of FOL-005 peptide on smooth muscle cell proliferation (FIG. 30a) was determined with BrdU incorporation in peptide-treated human coronary smooth muscle cells (HCASMCs). […]

| Sequence | sFasL-induced apoptosis (caspase 3 and 7) [1] | expression of PECAM-1 (CD31) ([2]; 10 nM, 100 nM, 1000 nM tested) | sFasL-induced apoptosis (caspase 3 and 7) ([1]; listed as FOL26) | expression of PECAM-1 (CD31) ([2]; 100 nM and 1000 nM) | angiogenesis related genes ([2]; endothelial cells) | smooth muscle cell apoptosis induced with low-oxygen condition (active caspase-3/-7) [3] | ROS formation (H2O2 measurement) [4] | wound closure rate (scratch injury) [5] | wound closure rate after NRP-1 knock-down ([5]; siRNA-NC/siNRP-1-transfected HUVECs, increasing concentration, 5 hours) |
| --- | --- | --- | --- | --- | --- | --- | --- | --- | --- |
| AEIDSIELSYGIK [FOL56] | reduced sFasL-induced apoptosis; also recorded: capable of inhibiting, or trended towards inhibiting apoptosis | increased expression of PECAM-1 |  |  |  |  |  |  |  |
| VDTYDGGISVVYGLR [FOL-026] |  | increased expression of PECAM-1 | reduced sFasL-induced apoptosis; also recorded: capable of reversing the sFasL-induced apoptosis | increased | induces upregulation | inhibits apoptosis | reduces ROS formation | accelerates HUVEC wound closure | positive effect on wound closure |
| VDTYDGDISVVYGLR [FOL-005] |  |  |  |  |  |  |  | accelerate HUVEC wound closure |  |
